Reference: patent publication US20220056014A1, “PHENYLPYRROLIDINE COMPOUND AND USE THEREOF” (WUHAN HUMANWELL INNOVATIVE DRUG RESEARCH AND DEVELOPMENT …, priority 2018, published 2022)
Like-named read-outs stand apart in the source and are kept apart here.

How the values were obtained:
PDE4D = molecular target: T1, PDE4D (Homo sapiens, UniProt Q08499); test: PDE4D enzyme activity assay (PDE-Glo Phosphodiesterase Assay Kit); format: biochemical
T1 construct: purchased Enzo Life Sciences BML-SE523-0020
Procedure: (§1) For the previously synthesized compounds, the inhibitory activity of the compounds against PDE4B and against PDE4D was tested by using PDE-Glo Phosphodiesterase Assay Kit (promega, V1361). In short, in accordance with the instructions of the kit, a concentrated stock solution (10 mM) the compound to be tested was first prepared with DMSO solvent, and the concentrated stock solution was then diluted into 10× working solutions with a Reaction buffer provided in the kit. With the Reaction buffer, on ice, PDE4B enzyme (Enzo Life Sciences, BML-SE522-0020) was diluted to a concentration of 1 ng/μl to obtain a PDE4B enzyme working solution, and PDE4D enzyme (Enzo Life Sciences, BML-SE523-0020) was diluted to a concentration of 4 ng/μl to obtain a PDE4D enzyme working solution. 1.5 μl of the PDE4B working solution (or PDE4D working solution) and 1 μl of the compound working solution were added to wells of 384-well plate (Corning, CLS3707), and incubated with shaking at room temperature for 5 min, followed by adding 2.5 μl of cAMP (in Reaction buffer, 2 μM) per well, incubating with shaking at room temperature for 20 min. 2.5 μl/well of 1× Termination Buffer, and then 2.5 μl/well of 1× Detection Buffer were added, and further incubated with shaking at room temperature for 20 min. 10 μl/well of 1× Kinase-Glo was added, and the plate was incubated with shaking at room temperature for 10 min, and bioluminescence was measured with PheraStar instrument. The experimental results were plotted with GraphPad Prism software, and fitted to calculate IC50 of each compound.

Rat pharmacokinetic test = format: in vivo, SD rats; details: male, Sprague-Dawley (SD), plasma, oral gavage 10 mg/kg
Procedure: (§2) In the rat pharmacokinetic test, 3 male SD rats (180-240 g) were fasted overnight, and orally administered with 10 mg/kg of compound to be tested. Blood was collected before the administration, and 15 min, 30 min, 1 h, 2 h, 4 h, 8 h, and 24 h hours after the administration. The blood sample was centrifuged at 8000 rpm for 6 min at 4° C., and the plasma was collected and stored at −20° C. The plasma collected at each time point was added and mixed with 3-5 times the amount of acetonitrile solution containing an internal standard, vortexed for 1 min, centrifuged at 13,000 rpm for 10 min at 4° C. The supernatant was taken and mixed with 3 times the amount of water, and an appropriate amount of the mixture was taken for LC-MS/MS analysis. The main pharmacokinetic parameters were analyzed with WinNonlin 7.0 software non-compartmental model.

PDE4B = molecular target: T2, PDE4B (Homo sapiens, UniProt Q07343); test: PDE4B enzyme activity assay (PDE-Glo Phosphodiesterase Assay Kit); format: biochemical; details: for IC50 (PDE4D)/IC50 (PDE4B): selectivity ratio
T2 construct: purchased Enzo Life Sciences BML-SE522-0020
Procedure: as §1

[1] = test system: LPS-induced secretion of TNFα in human PBMCs; test: LPS-induced secretion of TNFα in human PBMCs; format: cell-based; details: Homo sapiens, PBMC, 24 h, LPS 10 ng/ml
Procedure: Extraction process of peripheral blood mononuclear cells (PBMCs): one unit of human peripheral blood concentrate (concentrated from 200 cc peripheral blood) was sucked and added with 0.9% saline until a total volume reached 120 ml, and mixed homogenously. 15 ml Lymphoprep™ was added into 50 ml centrifuge tube, and then 30 ml of diluted blood concentrate was carefully and slowly added thereto, allowing the diluted blood to be stacked on the layered solution and preventing the diluted blood from being mixed into the separated solutions or breaking the surface of the separated solution, wherein a ratio of Lymphoprep™ to the diluted blood was 1:2. The centrifuge tubes were balanced and placed in a horizontal centrifuge (eppendorf, 5810R), and centrifuged at 800 g and 20° C. for 20 min. The centrifuge tubes were carefully taken out. PBMCs were absorbed by directly inserting the Pasteur pipette deep into the buffy coat. The obtained PBMCs were gently pipetted with 3 times the volume of 0.9% normal saline or PBS (without calcium or magnesium ions) to mix homogenously. After that, the cells were centrifuged at 250 g and 20° C. for 10 min, the supernatant was removed to remove the platelets remaining in the cell suspension. The obtained cell pellet was resuspended in 20 ml of PBS, and counted using trypan blue.
Compound screening by using PBMCs: the PBMC suspension obtained above was centrifuged to remove PBS, then resuspended in complete medium (RPMI1640+10% FBS+1% P/S) and counted. 100 μL/well of the cells was seeded at 5×10^4/well. Each of the compounds to be screened was prepared as 4 times the final concentration, which was added to the cells at 50 μL/well. The compound was pre-incubated for 30 min in advance of being added to the cells. Meanwhile, control wells to which the compound was not added were provided. A final stimulation concentration of LPS was 10 ng/ml, and LPS was formulated as 4 times the final stimulation concentration, and added to the cells at 50 μL/well. Meanwhile, control wells, i.e., wells without LPS were provided. The cells were incubated for 24 h, and 10% of the supernatant was collected for detection. The obtained supernatant was detected using Invitrogen's Human TNF-α kit (REF: 88-7346-88).

[2] = test system: LPS-stimulated TNF-α release; test: LPS-stimulated TNF-α release in mice; format: in vivo, Balb/c mice; details: Mus musculus, oral 50 mg/kg (positive control 100 mg/kg), 1 mg/kg LPS i.p.
Procedure: 18 Balb/c mice (6 to 8 weeks) were randomly assigned to a blank group, a model group, and an administration group, 6 mice in each group. A vehicle (blank group, model group) or 50 mg/kg compound (administration group, where the dose for the positive control group was 100 mg/kg) was orally administrated. 30 min after the oral administration, PBS (blank group) or 1 mg/kg LPS (model group and administration group) was injected intraperitoneally. 90 min or 120 min after the intraperitoneal injection, blood was collected from the hearts of the mice, and still stood at 2-8° C. for 4 hours, and centrifuged at 5000 rpm for 10 min to collect the serum. The serum was stored at −80° C. for testing.
The serum TNF-α level was tested using a mouse TNF-α detection kit (Mouse TNFa ELISA kit: Biolegend, Cat: 430904). The inhibitory activity of the compounds against the TNF-α release was calculated based on the serum TNF-α level.
Inhibitory activity of compound %={1−(TNFα concentration of administration group−TNFα concentration of blank group)/(TNFα concentration of model group−TNFα concentration of blank group)}×100%.

[3] = Mouse pharmacokinetic test; format: in vivo, CD-1 mice; details: male, CD-1, plasma, oral gavage 10 mg/kg
Procedure: as §2
(§3) In the mouse pharmacokinetic test, 9 male CD-1 mice (20-25 g) were fasted overnight, and orally administered with 10 mg/kg of the compound to be tested. Bloods of 3 mice were collected at each time point, and bloods of 9 mice were alternately collected in total. In the pharmacokinetic test in canine, 3 male beagle dogs (8-10 kg) were fasted overnight, and orally administered with 5 mg/kg of the compound to be test. In the pharmacokinetic test of cynomolgus monkeys, 3 male cynomolgus monkeys (4 to 6.5 kg) were fasted overnight, and orally administered 20 mg/kg of the compound to be test. The remaining processes are the same as those of the rat pharmacokinetic test.

[4] = Pharmacokinetic test in canine; format: in vivo, beagle dogs; details: male, beagle, dog, plasma, oral gavage 5 mg/kg
Procedure: as §2, §3

[5] = 1.5 h, blood 90 min after LPS, read-out: Inhibition rate (%) of LPS-stimulated TNF-α release, 90 min
[6] = 2 h, blood 120 min after LPS, read-out: Inhibition rate (%) of LPS-stimulated TNF-α release, 120 min

T2 sequence (Q07343 whole entry): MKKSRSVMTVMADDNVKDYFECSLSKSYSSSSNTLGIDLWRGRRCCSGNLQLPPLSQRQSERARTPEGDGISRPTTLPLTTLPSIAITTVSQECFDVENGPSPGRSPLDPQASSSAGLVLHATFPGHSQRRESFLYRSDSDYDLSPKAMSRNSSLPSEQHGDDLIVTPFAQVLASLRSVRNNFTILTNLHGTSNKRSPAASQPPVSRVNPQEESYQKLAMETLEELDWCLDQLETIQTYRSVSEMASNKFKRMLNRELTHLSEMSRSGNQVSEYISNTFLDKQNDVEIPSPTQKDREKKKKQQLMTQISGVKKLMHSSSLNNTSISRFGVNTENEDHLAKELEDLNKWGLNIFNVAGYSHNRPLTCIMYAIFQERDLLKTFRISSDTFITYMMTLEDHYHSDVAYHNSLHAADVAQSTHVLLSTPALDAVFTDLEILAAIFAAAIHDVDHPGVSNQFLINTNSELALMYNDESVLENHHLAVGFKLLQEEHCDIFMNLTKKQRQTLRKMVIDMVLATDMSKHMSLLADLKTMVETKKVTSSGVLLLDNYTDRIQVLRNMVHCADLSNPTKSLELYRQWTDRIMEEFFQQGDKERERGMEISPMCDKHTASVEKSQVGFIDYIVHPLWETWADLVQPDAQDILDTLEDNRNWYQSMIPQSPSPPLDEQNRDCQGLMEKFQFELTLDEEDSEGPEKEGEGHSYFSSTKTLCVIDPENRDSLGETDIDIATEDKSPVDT
T1 sequence (Q08499 whole entry): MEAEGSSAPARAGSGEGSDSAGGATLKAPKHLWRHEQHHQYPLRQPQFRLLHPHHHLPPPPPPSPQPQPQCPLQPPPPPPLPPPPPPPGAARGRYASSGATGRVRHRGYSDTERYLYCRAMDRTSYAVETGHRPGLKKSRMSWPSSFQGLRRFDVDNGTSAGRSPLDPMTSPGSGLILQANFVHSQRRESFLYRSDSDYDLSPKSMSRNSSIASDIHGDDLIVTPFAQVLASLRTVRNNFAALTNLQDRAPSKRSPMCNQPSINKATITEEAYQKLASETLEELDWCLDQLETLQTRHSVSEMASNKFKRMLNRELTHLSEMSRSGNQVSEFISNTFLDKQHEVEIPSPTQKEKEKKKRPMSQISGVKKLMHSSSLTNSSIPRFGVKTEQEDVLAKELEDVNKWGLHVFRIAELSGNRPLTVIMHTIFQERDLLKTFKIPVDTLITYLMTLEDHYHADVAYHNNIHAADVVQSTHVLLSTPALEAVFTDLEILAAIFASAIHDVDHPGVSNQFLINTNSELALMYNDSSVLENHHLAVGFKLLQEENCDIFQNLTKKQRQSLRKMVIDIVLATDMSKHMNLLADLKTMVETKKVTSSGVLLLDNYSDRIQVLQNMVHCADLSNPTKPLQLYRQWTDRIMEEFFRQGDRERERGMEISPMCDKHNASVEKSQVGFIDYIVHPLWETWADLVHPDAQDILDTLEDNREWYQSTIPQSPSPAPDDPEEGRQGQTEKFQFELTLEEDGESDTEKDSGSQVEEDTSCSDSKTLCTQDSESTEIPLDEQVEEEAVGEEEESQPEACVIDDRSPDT

SMILES | IC50 (PDE4D) [nM] | AUC(0-t) (Rat pharmacokinetic test) [µg·h/mL] | Cmax (Rat pharmacokinetic test) [µg/mL] | Tmax (Rat pharmacokinetic test) [min] | IC50 (PDE4B) [nM] | IC50 (PDE4D)/IC50 (PDE4B) (PDE4B) | IC50 [1] [nM] | inhibition in vivo at 50 mg/kg [2, 5] [%] | AUC(0-t) [3] [µg·h/mL] | Cmax [3] [µg/mL] | Tmax [3] [min] | inhibition in vivo at 50 mg/kg [2, 6] [%] | AUC(0-t) [4] [µg·h/mL] | Cmax [4] [µg/mL] | Tmax [4] [min]
CCOc1ccc(N2CC(Oc3cc([C@@H]4CN(C(=O)[C@@H](O)CO)C[C@@]4(C)[C@@H](C)O)ccc3OC)C2)nc1 [Compound 022, (S)-1-((3S,4S)-4-(3-((1-(5-ethoxypyridin-2-yl)azetidin-3-yl)oxy)-4-methoxyphenyl)-3-((R)-1-hydroxyethyl)-3-methylpyrrolidin-1-yl)-2,3-dihydroxypropan-1-one] | 1.18 | 0.41 | 0.221 | 19.8 | 0.75 | 1.57 | 1.01 | 60.7 | 0.215 | 0.186 | 15 |  |  |  | 
COc1ccc([C@@H]2CN(C(=O)[C@@H](O)CO)C[C@@]2(C)[C@@H](C)O)cc1OC1CN(c2cc(C)c(Cl)cn2)C1 [Compound 010, (S)-1-((3S,4S)-4-(3-((1-(5-chloro-4-methylpyridin-2-yl)azetidin-3-yl)oxy)-4-methoxyphenyl)-3-((R)-1-hydroxyethyl)-3-methylpyrrolidin-1-yl)-2,3-dihydroxypropan-1-one] | 0.95 | 0.0953 | 0.0404 | 19.8 | 1.9 | 0.50 | 1.05 | 47.6 | 0.645 | 0.314 | 15 | 65.4 | 1.64 | 0.413 | 49.8
COc1ccc([C@@H]2CN(C(=O)[C@@H](O)CO)C[C@@]2(C)[C@@H](C)O)cc1OC1CN(c2cc(C)c(C)cn2)C1 [Compound 008, (S)-1-((3S,4S)-4-(3-((1-(4,5-dimethylpyridin-2-yl)azetidin-3-yl)oxy)-4-methoxyphenyl)-3-((R)-1-hydroxyethyl)-3-methylpyrrolidin-1-yl)-2,3-dihydroxypropan-1-one] | 3.58 | 0.443 | 0.133 | 15 | 1.46 | 2.45 | 1.81 |  | 0.625 | 0.298 | 30 | 63 | 1.76 | 0.534 | 30
COc1ccc([C@@H]2CN(C(=O)[C@@H](O)CO)C[C@@]2(C)[C@@H](C)O)cc1OC1CN(c2cc(Cl)c(C)cn2)C1 [Compound 002, (S)-1-((3S,4S)-4-(3-((1-(4-chloro-5-methylpyridin-2-yl)azetidin-3-yl)oxy)-4-methoxyphenyl)-3-((R)-1-hydroxyethyl)-3-methylpyrrolidin-1-yl)-2,3-dihydroxypropan-1-one] | 0.16 | 0.103 | 0.0416 | 19.8 | 0.43 | 0.37 | 0.56 |  | 0.386 | 0.355 | 15 | 66.2 | 0.534 | 0.198 | 60
COc1ccc([C@@H]2CN(C(=O)[C@@H](O)CO)C[C@@]2(C)[C@@H](C)O)cc1OC1CN(c2cc(C#N)c(C)cn2)C1 [Compound 001, 2-(3-(5-((3S,4S)-1-((S)-2,3-dihydroxypropanoyl)-4-((R)-1-hydroxyethyl)-4-methylpyrrolidin-3-yl)-2-methoxyphenoxy)azetidin-1-yl)-5-methylisonicotinonitrile] | 0.67 | 0.0235 | 0.0225 | 19.8 | 0.91 | 0.74 | 0.36 | 53.6 | 0.311 | 0.339 | 15 | 39.5 |  |  | 
